US8507529B2, “Methods of using a nitroxide antioxidant in cosmetic and dermatological compositions” (Jarrow Formulas, Inc., priority 2005, dated 2013)

Tests used:
[1] = Absorption spectra of 50 μM compounds in acetonitrile; format: physicochemical; details: 50 μM in acetonitrile, FIG. 2
Procedure: FIG. 2. Absorption spectra of 50 μM compounds in acetonitrile.

[2] = Optical absorption spectra before and after UVA exposure (photostability); format: physicochemical; details: 100 μM in phosphate buffer pH 7.4, 275 kJ/m^2 UVA, ethyl acetate extraction, FIG. 3
Procedure: FIG. 3. […] See Detailed Description for experimental details.
The reason for using buffer was to maintain the same medium as the peroxidation experiments so that comparisons between the optical absorption experiments and lipid peroxidation could be meaningful.
10 mM Stock solutions of TEMPOL and the photoactive ingredients were prepared in acetonitrile. […] The solutions were then transferred to a 24 multi-well plate for cell cultures (Orange Scientific, Cambrex BioScience, Walkerville, Inc.) which was placed on a brass block embedded on ice at a distance of 20 cm from the light source. […] After illumination, 2.4 ml of sample were collected from each well and extracted with the same volume of ethyl acetate. The organic phase was separated and its absorption spectrum was then run on a UV Kontron 941 spectrophotometer. For the non-illuminated samples, the same procedure was followed for the same length of time except that the samples were exposed to direct artificial laboratory working light.

[3] = Peroxidation of multilamellar phosphatidylcholine (PC) liposomes induced by UVA, TBA assay (TBARS); details: 3.5 mM PC liposomes, 275 kJ/m^2 UVA; for level of UVA-induced lipid peroxidation (TBARS absorbance): 100 μM compounds alone or combined, FIG. 4
[4] = system: transgenic murine fibroblast culture; details: transgenic murine fibroblast culture model of cutaneous photoaging; cited from earlier work
human dermal fibroblasts = details: cited from earlier work

Compound	change in spectral absorption after UVA exposure [2]	level of UVA-induced lipid peroxidation (TBARS absorbance) [3]	other results
2,2,6,6-tetramethyl-piperidin-4-yl-p-methoxy cinnamyloxy-1-oxyl [MC-NO]	retains the majority of its original absorbance	greatly reduced to almost control levels	spectral profile and extinction coefficient [1]: same spectral profile and extinction coefficient as OMC
CCCCC(CC)COC(=O)C=Cc1ccc(OC)cc1 (centres unmarked) [OMC, 2-ethylhexyl-4-methoxycinnamate]	strong decrease in spectral absorption	seems to protect	
COc1ccc(C(=O)CC(=O)c2ccc(C(C)(C)C)cc2)cc1 [Parsol 1789, 4-tert-butyl-4′-methoxydibenzoylmethane]			level of UVA-induced lipid peroxidation (TBARS absorbance) with Parsol 1789 ([3]; 100 μM Parsol 1789 alone or combined with 100 μM compound, FIG. 5): significant increase
CC1(C)CC(O)CC(C)(C)N1[O] [TEMPOL, 4-hydroxy-2,2,6,6,-tetramethyl-piperidine-1-oxyl]			protection against UV radiation [4]: affords protection against UV radiation; protection against UV radiation (human dermal fibroblasts): affords protection against UV radiation
